Assay results from patent US20240141061A1, “NOVEL ANTIBODY AGAINST CD55 AND USE THEREOF” (SG MEDICAL INC, priority 2021, published 2024).

Experiments:
Assay type in all cases: cell-based
PC9 NSCLC cells = assay: Apoptosis by FACS in PC9 NSCLC cells; settings: 5 μg/mL gefitinib alone, 24 hours
Method: (§1) 24 hours later, after treating with 5 μg/mL gefitinib or 5 μg/mL gefitinib and 5 μg/mL 4-1H or EP-10H diluted with 500 μL of RPMI, the cells were cultured again for 24 hours under the condition of 37° C. and 5% CO2. Then, apoptotic cells were analyzed with the FACS analysis equipment Attune N×T using 7-AAD and an FITC annexin V apoptosis detection kit (FIG. 7b).

PC9-GR cells = assay: Apoptosis by FACS in gefitinib-resistant PC9-GR cells; settings: 5 μg/mL gefitinib alone, 24 hours
Method: as §1

K562 cells = assay: Apoptosis by FACS in K562 cells; settings: 2 μM imatinib alone, 24 hours
Method: (§2) Immediately thereafter, the cells were treated with 2 μM imatinib or with 2 μM imatinib and 10 μg/mL 4-1H or EP-10H diluted with 500 μL of RPMI, and then cultured under the condition of 37° C. and 5% CO2 for 24 hours. Then, apoptotic cells were analyzed with the FACS analysis equipment Attune N×T using 7-AAD and an FITC annexin V apoptosis detection kit (FIG. 6b).

K562-IR cells = assay: Apoptosis by FACS in imatinib-resistant K562-IR cells; settings: 2 μM imatinib alone, 24 hours
Method: as §2

Ramos cells = assay: CDC / apoptosis by FACS in Ramos cells with complement human serum; settings: rituximab alone, method of Example 10-1
[1] = system: Burkitt lymphoma BJAB cells; assay: CDC / apoptosis by FACS (annexin V/7-AAD) in BJAB cells with complement human serum; settings: 20 μg/mL rituximab alone, 50% complement human serum, 1 hour
Excerpt: BJAB cells have complement resistance and this is due to the expression of CD55 (Golay, et al., Blood, 95 (12):3900-8, 2000). For this reason, they show low response to rituximab the main therapeutic mechanism of which is CDC (complement-dependent cytotoxicity). In order to confirm the possibility of improving the therapeutic effect of rituximab for Burkitt lymphoma, which is known as malignant B cell lymphoma, the apoptotic ability of co-administration with EP-10H in Burkitt lymphoma BJAB cells was investigated. For investigation of the effect of co-administration, 5×10^5 BJAB cells were cultured for 1 hour under the condition of 37° C. and 5% CO2 after treating with 100 μL of RPMI supplemented with 50% complement human serum (Sigma, USA), containing 50 μg/mL of 4-1H or EP-10H and 20 μg/mL of rituximab. Then, CDC was observed by identifying apoptotic cells with Attune N×T (ThermoFisher Scientific, USA), which is a FACS analysis equipment, using an FITC annexin V apoptosis detection kit with 7-AAD (BioLegend, USA) (FIG. 4). […] It was confirmed that this effect was more significant for EP-10H having higher affinity for CD55.
The apoptotic ability of the CD20×CD55 bispecific antibody was investigated by the method of Example 10-1. […]

Ramos-RR cells = assay: CDC / apoptosis by FACS in rituximab-resistant Ramos-RR cells with complement human serum; settings: rituximab alone, method of Example 10-1

Compound: COc1cc2ncnc(Nc3ccc(F)c(Cl)c3)c2cc1OCCCN1CCOCC1 [Gefitinib, gefitinib, reference compound]
- induction of apoptosis (PC9 NSCLC cells): induced apoptosis
- induction of apoptosis (PC9-GR cells): did not show the effect

Compound: Cc1ccc(NC(=O)c2ccc(CN3CCN(C)CC3)cc2)cc1Nc1nccc(-c2cccnc2)n1 [Imatinib, imatinib, reference compound]
- induction of apoptosis (K562 cells): induced apoptosis
- induction of apoptosis (K562-IR cells): did not show the effect

Compound: rituximab [reference compound]
- induction of apoptosis (Ramos cells): induced apoptosis
- response to rituximab (CDC, apoptotic cells) [1]: low response
- induction of apoptosis (Ramos-RR cells): the induction of apoptosis in the Ramos-RR cells was lower than in the Ramos cells
